Data: patent US5177085A, “Dihydro-isoquinoline derivatives, processes for their production, pharmaceutical compositions containing them, and their use in treating asthma” (Sandoz Ltd., priority 1990, dated 1993)

Assays:
[1] = system: human bronchus ring preparations; assay: Relaxation of human bronchus in vitro (Example A.1.b); assay type: cell-based; settings: human bronchus rings; pure or substantially pure [3S] enantiomer for Example 1
Experimental: (§1) Guinea-pigs (Dunkin-Hartley, 350-500gm) are killed with Pentothal (100mg/kg i.p.). The trachea is dissected and a section 2-3cm in length excised. The trachea is transected in the transverse plane at alternate cartilage plates so as to give rings of tissue 3-5mm in depth. The proximal and distal rings are discarded. Individual rings are mounted vertically on stainless steel supports, one of which is fixed at the base of an organ bathm the other being attached to an isometric transducer. The rings are bathed in Krebs solution composition mM: NaHCo3 25, NaCl 113, KCl 4.7, MgSO4.7H2 O 1.2, KH2 PO4 1.2, CaCl2 2.5, Glucose 11.7) at 37° C. and gassed with O2 /CO2 (95:5,v/v). Rings prepared in this manner, preloaded with 1 g, generate spontaneous tone and, after a period of equilibration (45-60 min.), relax consistently on addition of spasmolytic drugs. To ascertain spasmolytic activity, test substances are dissolved in physiological saline and added in increasign quantities to the organ bath at 5 min. intervals to provide a cumulative concentration-effect curve.
The test is performed analogously to 1. a above but employing rings of human bronchus dissected from lung that has been resected for carcinoma. Dissected material is used immediately or first immersed in total calf serum containing DMSO ([…]), slowly frozen to -70° C. and stored in liquid N2 at -190° C. […]

[2] = system: guinea-pig tracheal ring preparations; assay: Relaxation of guinea-pig tracheal smooth muscle in vitro (Example A.1.a); assay type: cell-based, Guinea-pig (Dunkin-Hartley); settings: Cavia porcellus; guinea-pig tracheal rings, spontaneous tone, 37° C., cumulative; pure or substantially pure [3S] enantiomer for Example 1; read-out: IC50 (concentration required to increase relaxation by 50%)
Experimental: as §1

[3] = system: PAF-induced airways hyperreactivity in guinea-pigs; assay: Suppression of airways hyperreactivity in PAF-treated animals (Example B); assay type: in vivo; settings: Cavia porcellus, iv; headed Example B (PAF-treated guinea-pigs); i.v.; pure or substantially pure [3S] enantiomer for Example 1; read-out: ID50 (dose required to increase relaxation by 50%)
Experimental: Guinea pigs (Dunkin-Hartley, male, 400-600g) are anesthetized with phenobarbital (100-mg/kg i.p.) and pentobarbital (30 mg/kg i.p.) and paralyzed with gallamine (10 mg/kg i.m.). Animals are ventilated via a tracheal cannula (10 ml/kg, 1 Hz) with a mixture of air and oxygen (1:1 v/v). Blood pressure and heart rate are recorded at the carotid artery. Ventilation is monitored by a Fleisch flow transducer in line with the inspiratory circuit. When making measurements of flow, coincident pressure changes in the thorax are monitored directly via an intrathoracic trochar, permitting display of differential pressure relative to the trachea. From this information in relation to flow and differential pressure, resistance [R1 ] and compliance [Ddyn ] are calculated using a digital respiratory analyzer for each respiratory cycle.
Guinea-pigs are anesthetized and prepared for recording of lung function as described under Example A.2. above. […] Following infusion of PAF (platelet activating factor) over 1 hr.

Compound	IC50 [1]	IC50 [2]	ED50 [3]
Cn1c(=O)c2[nH]cnc2n(C)c1=O [aminophylline]	158 µM	130 µM	
COc1cc(OC)cc(C2=N[C@H](CO)Cc3cc(OC)c(OC)cc32)c1 [Example 1, [3S] 3,4-dihydro-6,7-dimethoxy-1-(3,5-dimethoxyphenyl)-3-hydroxymethyl-isoquinoline]	1.9 µM	0.18 µM	~0.05 mg/kg
Cn1c(=O)c2[nH]cnc2n(C)c1=O [theophyline]			3 mg/kg
